Our source for the IC50 values is patent US20110077251A1, “NOVEL 17 BETA LUPANE DERIVATIVES” (priority 2009, published 2011).

Broadly, the IC50 is the concentration needed to halve the response being measured.

The assay relates to HIVIIIB. Kind of assay: HIV-1 replication in MT2 cell line with 30% human serum (RT activity in supernatant). Particulars: MT2 cells, day 5 after infection, average if tested more than once, read-out: MT2 (HIVIIIB) with human serum IC50 range. The assay is classed as cell-based. On the procedure: HIV-1 Replication in MT2 cell line with and without 30% human serum: The cells are infected at a Multiciplicity of Infection (MOI) of 0.5 for 3 h and then washed twice with complete media to remove residual virus. Cells are then resuspended at 0.5×10^6/ml in complete medium (RPMI, 10% FBS, 1% sodium pyruvate), and seeded into 96-well plates (6.25×10^4/well). The cells are cultured in the presence or absence of various concentrations of test compounds in serial dilutions for 3 days at 37° C. The test compounds are serially diluted in complete medium supplemented or not with 30% human serum. After 3 days, 100 μL of cultured medium with cells are replaced with 120 μL of freshly diluted test compounds in complete medium containing or not 30% Human serum. The level of HIV-1 replication is determined at days 5 after infection by the presence of viral RT activity in harvested supernatant fluid. The IC50 values for the virus replication are determined by using GRAPHPAD PRISM software.
The IC50 of the compounds tested in accordance with the HIV replication activity assay MT2 (HIVIIIB) with or without human serum are represented in Table 6.

Setting [1] is: Human immunodeficiency virus 1, 120 h.

Where two headings read alike, the source gives them in different places.

For the compound `C=C(C)[C@@H]1CC[C@]2(NC(=O)Nc3ccncc3)CC[C@]3(C)[C@H](CC[C@@H]4[C@@]5(C)CC[C@H](OC(=O)CC(C)(C)C(=O)O)C(C)(C)[C@@H]5CC[C@]43C)[C@@H]12` [Cpd 11-26, 3β-O-(3′,3′-Dimethylsuccinyl)-17β-(N′-pyridin-4-yl-ureido)-28-norlup-20(29)-ene], the IC50 under setting [1] is less than 199 nM.

For `C=C(C)[C@@H]1CC[C@]2(NC(=O)NCC(C)C)CC[C@]3(C)[C@H](CC[C@@H]4[C@@]5(C)CC[C@H](OC(=O)CC(C)(C)C(=O)O)C(C)(C)[C@@H]5CC[C@]43C)[C@@H]12` [Cpd 11-24, 3β-O-(3′,3′-Dimethylsuccinyl)-17β-(N′-isobutylureido)-28-norlup-20(29)-ene], the IC50 under setting [1] is less than 199 nM.

Turning to `C=C(C)[C@@H]1CC[C@]2(N(C)C)CC[C@]3(C)[C@H](CC[C@@H]4[C@@]5(C)CC[C@H](OC(=O)CC(C)(C)C(=O)O)C(C)(C)[C@@H]5CC[C@]43C)[C@@H]12` [Cpd 10-3, 3β-O-(3′,3′-Dimethylsuccinyl)-17β-dimethylamino-28-norlup-20(29)-ene], the IC50 under setting [1] was less than 199 nM.

As for `C=C(C)[C@@H]1CC[C@]2(N)CC[C@]3(C)[C@H](CC[C@@H]4[C@@]5(C)CC[C@H](OC(=O)[C@H]6CCC[C@@H](C(=O)O)C6)C(C)(C)[C@@H]5CC[C@]43C)[C@@H]12` [Cpd 9-3, 3β-O-(cis-Cyclohexane-3′-carboxylic acid-1′-carboxyl)-17β-amino-28-norlup-20(29)-ene], the 50% inhibitory concentration (IC50) under setting [1] was less than 199 nM.

As to `C=C(C)[C@@H]1CC[C@]2(NC(=O)NC3CCC(F)(F)CC3)CC[C@]3(C)[C@H](CC[C@@H]4[C@@]5(C)CC[C@H](OC(=O)CC(C)(C)C(=O)O)C(C)(C)[C@@H]5CC[C@]43C)[C@@H]12` [Cpd 11-25, 3β-O-(3′,3′-Dimethylsuccinyl)-17β-(N′-4,4-difluorocyclohexyl-ureido)-28-norlup-20(29)-ene], the half-maximal inhibitory concentration (IC50) under setting [1] is less than 199 nM.

Consider `C=C(C)[C@@H]1CC[C@]2(NC(=O)NCc3ccc(F)cc3)CC[C@]3(C)[C@H](CC[C@@H]4[C@@]5(C)CC[C@H](OC(=O)CC(C)(C)C(=O)O)C(C)(C)[C@@H]5CC[C@]43C)[C@@H]12` [Cpd 11-18, 3β-O-(3′,3′-Dimethylsuccinyl)-17β-(N′-4-fluorophenylmethyl-ureido)-28-norlup-20(29)-ene], for which the IC50 under setting [1] is less than 199 nM.

For `C=C(C)[C@@H]1CC[C@]2(NC(=O)NC3CCCCC3)CC[C@]3(C)[C@H](CC[C@@H]4[C@@]5(C)CC[C@H](OC(=O)CC(C)(C)C(=O)O)C(C)(C)[C@@H]5CC[C@]43C)[C@@H]12` [Cpd 11-22, 3β-O-(3′,3′-Dimethylsuccinyl)-17β-(N′-cyclohexyl-ureido)-28-norlup-20(29)-ene], the half-inhibitory concentration (IC50) under setting [1] was less than 199 nM.

“3β-O-(2′,2′-Dimethylsuccinyl)-17β-tert-butyloxycarbonylamino-28-norlup-20(29)-ene [Cpd 8-2]”: the IC50 was greater than 1000 nM.

Turning to `C=C(C)[C@@H]1CC[C@]2(NC(=O)N[C@H](C)c3ccccc3)CC[C@]3(C)[C@H](CC[C@@H]4[C@@]5(C)CC[C@H](OC(=O)CC(C)(C)C(=O)O)C(C)(C)[C@@H]5CC[C@]43C)[C@@H]12` [Cpd 11-27, 3β-O-(3′,3′-Dimethylsuccinyl)-17β-(N′-(R)-1-phenyl-ethyl-ureido)-28-norlup-20(29)-ene], under setting [1], the concentration for half-maximal inhibition (IC50) is less than 199 nM.

Turning to `C=C(C)C1CCC2(NCC3CC3)CCC3(C)C(CCC4C5(C)CCC(OC(=O)CC(C)(C)C(=O)O)C(C)(C)C5CCC43C)C12` (stereo not drawn) [Cpd 10-2, 17β-(Cyclopropylmethyl-amino)-3β-O-(3′,3′-dimethylsuccinyl)-28-norlup-20(29)-ene], the IC50 is less than 199 nM.

As to `C=C(C)[C@@H]1CC[C@]2(NC(=O)NCC3CCCCC3)CC[C@]3(C)[C@H](CC[C@@H]4[C@@]5(C)CC[C@H](OC(=O)CC(C)(C)C(=O)O)C(C)(C)[C@@H]5CC[C@]43C)[C@@H]12` [Cpd 11-20, 3β-O-(3′,3′-Dimethylsuccinyl)-17β-(N′-cyclohexylmethyl-ureido)-28-norlup-20(29)-ene], the IC50 under setting [1] was less than 199 nM.

As for `C=C(C)[C@@H]1CC[C@]2(NC(=O)c3ccncc3)CC[C@]3(C)[C@H](CC[C@@H]4[C@@]5(C)CC[C@H](OC(=O)[C@H]6CCC[C@@H](C(=O)O)C6)C(C)(C)[C@@H]5CC[C@]43C)[C@@H]12` [Cpd 13-15, 3β-O-(cis-Cyclohexane-3′-carboxylic acid-1′-carboxyl)-17β-(pyridin-4-ylcarbonyl)-amino-28-norlup-20(29)-ene], the half-maximal inhibitory concentration (IC50) under setting [1] was greater than 1000 nM.

Regarding `C=C(C)[C@@H]1CC[C@]2(NC(=O)N3CCCC3)CC[C@]3(C)[C@H](CC[C@@H]4[C@@]5(C)CC[C@H](OC(=O)CC(C)(C)C(=O)O)C(C)(C)[C@@H]5CC[C@]43C)[C@@H]12` [Cpd 11-29, 3β-O-(3′,3′-Dimethylsuccinyl)-17β-[(pyrrolidine-1-carbonyl)-amino]-28-norlup-20(29)-ene], the IC50 under setting [1] is less than 199 nM.

As to `C=C(C)[C@@H]1CC[C@]2(NC(=O)NCC3CCOCC3)CC[C@]3(C)[C@H](CC[C@@H]4[C@@]5(C)CC[C@H](OC(=O)CC(C)(C)C(=O)O)C(C)(C)[C@@H]5CC[C@]43C)[C@@H]12` [Cpd 11-21, 3β-O-(3′,3′-Dimethylsuccinyl)-17β-(N′-tetrahydropyran-4-ylmethyl-ureido)-28-norlup-20(29)-ene], under setting [1], the IC50 was less than 199 nM.

With `C=C(C)[C@@H]1CC[C@]2(NC(=O)N[C@@H](C)c3ccccc3)CC[C@]3(C)[C@H](CC[C@@H]4[C@@]5(C)CC[C@H](OC(=O)CC(C)(C)C(=O)O)C(C)(C)[C@@H]5CC[C@]43C)[C@@H]12` [Cpd 11-23, 3β-O-(3′,3′-Dimethylsuccinyl)-17β-(N′-(S)-1-phenyl-ethyl-ureido)-28-norlup-20(29)-ene], under setting [1], the IC50 was less than 199 nM.

For the compound `C=C(C)[C@@H]1CC[C@]2(NC(=O)NC(C)(C)c3ccccc3)CC[C@]3(C)[C@H](CC[C@@H]4[C@@]5(C)CC[C@H](OC(=O)CC(C)(C)C(=O)O)C(C)(C)[C@@H]5CC[C@]43C)[C@@H]12` [Cpd 11-28, 3β-O-(3′,3′-Dimethylsuccinyl)-17β-[N′-(1-methyl-1-phenylethyl)-ureido]-28-norlup-20(29)-ene], the concentration for half-maximal inhibition (IC50) under setting [1] is less than 199 nM.

Turning to `C=C(C)[C@@H]1CC[C@]2(NC(=O)Nc3nccs3)CC[C@]3(C)[C@H](CC[C@@H]4[C@@]5(C)CC[C@H](OC(=O)CC(C)(C)C(=O)O)C(C)(C)[C@@H]5CC[C@]43C)[C@@H]12` [Cpd 11-19, 3β-O-(3′,3′-Dimethylsuccinyl)-17β-(N′-thiazol-2-yl-ureido)-28-norlup-20(29)-ene], the concentration for half-maximal inhibition (IC50) under setting [1] is less than 199 nM.

Turning to `C=C(C)[C@@H]1CC[C@]2(NC(=O)OC(C)(C)C)CC[C@]3(C)[C@H](CC[C@@H]4[C@@]5(C)CC[C@H](OC(=O)[C@H]6CC[C@@](C)(C(=O)O)C6(C)C)C(C)(C)[C@@H]5CC[C@]43C)[C@@H]12` [Cpd 8-3, 3β-O-[(1′S,3′R)-2′,2′,3′-Trimethyl-cyclopentane-3′-carboxylic acid-1′-carboxyl]-17β-tert-butyloxycarbonylamino-28-norlup-20(29)-ene], the IC50 under setting [1] was greater than 1000 nM.

In the case of `C=C(C)[C@@H]1CC[C@]2(NC(=O)c3cscn3)CC[C@]3(C)[C@H](CC[C@@H]4[C@@]5(C)CC[C@H](OC(=O)CC(C)(C)C(=O)O)C(C)(C)[C@@H]5CC[C@]43C)[C@@H]12` [Cpd 13-13, 3β-O-(3′,3′-Dimethylsuccinyl)-17β-[(thiazol-4-ylcarbonyl)-amino]-28-norlup-20(29)-ene], the IC50 under setting [1] is less than 199 nM.

As for `C=C(C)[C@@H]1CC[C@]2(NC(=O)NC(C)C)CC[C@]3(C)[C@H](CC[C@@H]4[C@@]5(C)CC[C@H](OC(=O)CC(C)(C)C(=O)O)C(C)(C)[C@@H]5CC[C@]43C)[C@@H]12` [Cpd 11-16, 3β-O-(3′,3′-Dimethylsuccinyl)-17β-(N′-isopropyl-ureido)-28-norlup-20(29)-ene], the half-inhibitory concentration (IC50) under setting [1] lay in the range of 200 to 999 nM.

Take `C=C(C)[C@@H]1CC[C@]2(NC(=O)Nc3ccc(F)cc3)CC[C@]3(C)[C@H](CC[C@@H]4[C@@]5(C)CC[C@H](OC(=O)CC(C)(C)C(=O)O)C(C)(C)[C@@H]5CC[C@]43C)[C@@H]12` [Cpd 11-17, 3β-O-(3′,3′-Dimethylsuccinyl)-17β-(N′-4-fluorophenyl-ureido)-28-norlup-20(29)-ene]: under setting [1], the half-inhibitory concentration (IC50) was less than 199 nM.

Consider `C=C(C)[C@@H]1CC[C@]2(NC(=O)Nc3ccccc3)CC[C@]3(C)[C@H](CC[C@@H]4[C@@]5(C)CC[C@H](OC(=O)CC(C)(C)C(=O)O)C(C)(C)[C@@H]5CC[C@]43C)[C@@H]12` [Cpd 11-12, 3β-O-(3′,3′-Dimethylsuccinyl)-17β-(N′-phenyl-ureido)-28-norlup-20(29)-ene], for which the IC50 under setting [1] was less than 199 nM.

`C=C(C)[C@@H]1CC[C@]2(NC(=O)N(C)C)CC[C@]3(C)[C@H](CC[C@@H]4[C@@]5(C)CC[C@H](OC(=O)CC(C)(C)C(=O)O)C(C)(C)[C@@H]5CC[C@]43C)[C@@H]12` [Cpd 11-13, 3β-O-(3′,3′-Dimethylsuccinyl)-17β-(N′,N′-dimethyl-ureido)-28-norlup-20(29)-ene]: under setting [1], the half-maximal inhibitory concentration (IC50) was less than 199 nM.
